Structures can show the parent of a compound that is named as a salt.
Assay: solubility in water of the potassium salt of Diacerein
Assay type: physicochemical
Conditions: in water at neutral pH (pH=7)
Experimental: Type A Process: The first step of the process (a.) is to salify the raw Diacerein to obtain a salt of Diacerein which is soluble in water. The water soluble salt of Diacerein is preferably an inorganic salt of Diacerein, more preferably a salt of Diacerein with an alkali metal. In a preferred embodiment, the salt of Diacerein is a potassium salt of Diacerein or a sodium salt of Diacerein. The solubility of potassium salt of Diacerein is around 1 g/50 ml of water at neutral pH (pH=7).

SMILES: CC(=O)Oc1cccc2c1C(=O)c1c(OC(C)=O)cc(C(=O)O)cc1C2=O [potassium salt of Diacerein, 1,8-diacetoxy-3-carboxyanthraquinone]
- solubility: around 1 g/50 ml

— patent US8598232B2, “Process for the preparation of non-genotoxic diacetylrhein (diacerein) and formulations comprising non-genotoxic diacetylrhein” (Evultis SA, priority 2008, dated 2013)
